Results reported in patent publication US5681823A, “P^1, P^4 -dithio-P^2 -P^3 -monochloromethylene 5', 5'"-diadenosine P^1, P^4 -tetraphosphate as antithrombotic agent” (PRP Inc., priority 1996, dated 1997).
Where two headings read alike, the source gives them in different places.

Legend:
[1] = tested on: platelet aggregation; assay: Platelet aggregation induced by ADP and agonists other than ADP; assay type: cell-based, human; settings: for IC50: Homo sapiens, Platelet; for effect on collagen-induced aggregation: agonist collagen, in words; for effect on ristocetin-induced platelet aggregation: agonist ristocetin; for effect on thrombin-induced platelet aggregation: agonist thrombin
Procedure: (§1) Unless otherwise provided below, the experimental procedures were performed according to the procedures provided in U.S. Pat. No. 5,049.550 (Zamecnik '550), the entire contents of which are incorporated herein by reference. Some alternative procedures (e.g., release reaction, PF3 assays) and a number of additional studies also are provided (e.g., cytoplasmic calcium mobilization, fibrinogen binding site, agonists other than ADP, platelet cAMP and distribution of CHCl-AP4 A into blood components). Blood was collected in a 0.1 volume of 3.8% sodium citrate from healthy human volunteers who had abstained from antiplatelet agents for at least 10 days. Platelet rich plasma (PRP) was separated by a gradual centrifugation and adjusted to 3.3×10^8 platelets per ml plasma. PRP has been utilized in the Examples unless otherwise stated.
The release reaction appears to be a unique response following platelet activation. ADP, among several platelet constituents, appears to play an important role in the enhancement of activation. We have examined the role of ADP that is released in platelet aggregation induced by other agonists including arachidonic acid, collagen, epinephrine, thrombin and ristocetin. Platelet aggregability induced by a given concentration of agonists was approximately 60-80% in absence of agents. […] This finding supports the above-described observations of the inhibitory effects of the agents on the release reaction.

[2] = Distribution of ^125 I-labeled CHCl-AP4 A: plasma & washes; assay type: binding, human; settings: 23 μM, 22° C., 30 minutes; mean of two
Procedure: (§2) There are, however, a variety of purinoceptors on other cell types. AP4 A analogues may bind not only to platelets but also to the erythrocytes and leukocytes when whole blood is treated with the agents. […] Platelets were separated by a gradual centrifugation, the packed red cells with buffy coats (leukocytes) were mixed, and fractionated by means of histopaque gradient separation (A. Boyum, Scand J. Clin. Lab. Invest. 21(suppl 97):77 (1968)). The cell fractions were washed twice and final suspensions were counted for cell number and the radioactivity. Percent distribution was calculated based on the CBC data of whole blood. Binding sites are expressed in the values per cells.

[3] = tested on: ADP-induced platelet aggregability; assay: Ability to aggregate of platelets exposed previously to the agents, resuspended in inhibitor-free plasma; assay type: cell-based, human; settings: for activity at 25 µM: preincubated 25 μM agent
Procedure: as §1
We believe that the inhibition mechanism of AP4 A analogues involves competing with ADP for binding to the platelet purinoceptor. To test the stability and inhibitory effects of the bound agent, platelet-rich plasma anticoagulated with ACD solution was preincubated with 25 μM thio-CHCl-AP4 A or 50 μM CHCl-AP4 A at 22° C. for 30 minutes. Platelets isolated by gel-column filtration (2×10^8 cells/ml) or centrifugation (3×10^8cells/ml) were resuspended in the inhibitor-free plasma and ADP-induced aggregability was measured. The values represent a mean of three experiments for the series of gel-filtration separation and a mean of two experiments for the centrifugation separation.

[4] = tested on: Erythrocytes; assay: Distribution of ^125 I-labeled CHCl-AP4 A into blood cell fractions: erythrocytes; assay type: binding, human
Procedure: as §2

[5] = tested on: fibrinogen receptor (GPIIb/IIIa); assay: Fibrinogen binding sites on ADP-activated platelets (FITC-anti-fgn, flow cytometer); assay type: cell-based, human; settings: for % binding (fibrinogen bound on ADP-activated platelets): 5 μM ADP
Procedure: Platelet responses to the agonists include in addition to aggregation a) release reaction, b) fibrinogen receptor silos (GPIIb/IIIa) and, c) platelet factor 3 activation. The effects of thio-CHCl-AP4 A and the reference agent (CHCl-AP4 A, compound E10 of Zamecnik '550) were tested on each of these responses.
Platelet surface receptors for fibrinogen are known to be increased by activation. The effects of thio-CHCl-AP4 A and CHCl-AP4 A on fibrinogen binding sites of activated platelets were assayed by means of Fluorescein isothiocyanate conjugated antifibrinogen antibody (FITC-anti-fgn) techniques in a flow cytometer (FACS, Becton-Dickinson). PRP was used at 1:20 final dilution. Platelets were activated by ADP in the presence or absence of the agents at 22° C. for 5 min. After incubation of activated platelets with FITC-Anti-Fgn at 22° C. for 10 min., 0.5 ml of 0.2% formyl saline (0.2% formaldehyde in 0.9% NaCl) was added to inhibit further activation. Samples included platelets that were a) unstimulated; b) stimulated with 5 μM ADP; c) exposed to agents (CHCl-AP4 A or thio-CHCl-AP4 A) for 5 minutes before ADP stimulation.

[6] = tested on: Platelet release reaction; assay: Platelet release reaction (ATP, luciferin-luciferase, lumiaggregometer); assay type: cell-based, human; settings: for IC50: Homo sapiens, Platelet, lumiaggregometer
Procedure: (§3) The effects of thio-CHCl-AP4 A and the reference agent on both ADP and collagen induced platelet aggregation, and release reaction were tested in a lumiaggregometer. Normal human PRP was separated from sodium […] anticoagulated (0.38%) blood. Platelet aggregation and release reaction induced by 5 μM ADP or 1 μg collagen/ml. The lumiaggregometer was equipped to assay both platelet aggregation and the luciferase reaction of ATP simultaneously a) in the absence of agent (control); and b) in the presence of various concentrations of thio-CHCl-AP4 A or CHCl-AP4 A. The measured amount of ATP released from the activated platelets by the agonist represents the release reaction. The luminescence produced by the luciferin-luciferase reaction was linear with respect to the amount of ATP released.

[7] = tested on: Platelets; assay: Distribution of ^125 I-labeled CHCl-AP4 A into blood cell fractions: platelets; assay type: binding, human
Procedure: as §2

[8] = tested on: ADP and collagen induced platelet aggregation; assay: Platelet aggregation in lumiaggregometer (ADP or collagen); assay type: cell-based, human; settings: for IC50: Homo sapiens, Platelet, lumiaggregometer
Procedure: as §3

[9] = tested on: ADP-induced platelet aggregation; assay: Time-dependent effects on ADP-induced aggregation (stability of the agents by functional assay in PRP); assay type: cell-based, human; settings: for ADP-induced aggregation: 10 μM ADP; for stability of inhibitory effect / agent in PRP: 37° C., up to 3 hours, in words
Procedure: as §1
To observe the stability of the agents by functional assay, PRP was incubated with 2.51 μM thio-CHCl-AP4 A or 5 μM CHCl-AP4 A at 37° C. for 3 hours. The concentrations of inhibiting agents used in this experiment were relatively low, especially for the thio compound. Samples taken at the times indicated were tested for ADP-induced (10 μM) aggregation.

[10] = tested on: ADP-induced platelet aggregation; settings: reference agent, kinetic study demonstrated previously (PNAS 1992); read-out: inhibition constant (Ki); cited from earlier work
[11] = agonist Arachidonic Acid (1 mM)
[12] = 23 μM, 22° C., 30 minutes, mean of two

Row | SMILES | IC50 ([1]; agonist ADP (5 μM)) | IC50 [1, 11] | IC50 ([1]; agonist Collagen (μg)) | IC50 ([1]; agonist Epinephrine (10 μM)) | effect on collagen-induced aggregation [1] | effect on ristocetin-induced platelet aggregation [1] | effect on thrombin-induced platelet aggregation [1] | % binding (fibrinogen bound on ADP-activated platelets) ([5]; 2.5 μM agent) | % binding (fibrinogen bound on ADP-activated platelets) ([5]; 5.0 μM agent) | IC50 ([6]; agonist 5 μM ADP) | IC50 ([6]; agonist collagen 1 μg/ml) | IC50 ([8]; agonist 5 μM ADP) | IC50 ([8]; agonist collagen 1 μg/ml) | stability of inhibitory effect / agent in PRP [9] | also measured
1 | Nc1ncnc2c1ncn2[C@@H]1O[C@H](COP(=O)(O)OP(=O)(O)C(Cl)P(=O)(O)OP(=O)(O)OC[C@H]2O[C@@H](n3cnc4c(N)ncnc43)[C@H](O)[C@@H]2O)[C@@H](O)[C@H]1O (stereo partly drawn) [CHCl-AP4 A] | 3.28 µM | 19 µM | > 100 µM | 24 µM | unaffected | Neither thio-CHCl-AP4 A nor CHCl-AP4 A affected | Neither thio-CHCl-AP4 A nor CHCl-AP4 A affected | 70.9 % binding | 41.3 % binding | 4.5 µM | 35 µM | 14 µM | > 100 µM | becomes unstable when it is kept in PRP more than 60 minutes at 37 °C | Distribution (%) [2]: 95.5%; activity at 50 µM ([3]; Homo sapiens, Platelet, 0.5 h, centrifugation, 20 μM ADP, preincubated 50 μM agent, 22° C., 30 min, mean of two, read-out: Aggregability (% of control)): 92%; inhibition in the ability to aggregate following exposure to ADP ([3]; preincubated 50 μM CHCl-AP4 A): 8%; Distribution (%) [4, 12]: 2.09%; Binding Sites ([4]; gross estimation per cell): 5.98 × 10^4 per cells; binding sites per surface area, relative value ([4]; relative, erythrocytes): 1; % binding (fibrinogen bound on ADP-activated platelets) ([5]; 7.5 μM agent): 36.1 % binding; % binding (fibrinogen bound on ADP-activated platelets) ([5]; 10 μM agent): 23.8 % binding; effect on collagen-induced release reaction ([6]; agonist collagen, in words): inhibited; Distribution (%) [7, 12]: 0.55%; Binding Sites ([7]; gross estimation per cell): 3.08 × 10^5 per cells; binding sites per surface area, relative value ([7]; relative, platelets): 100; effect on collagen-induced aggregation ([8]; agonist collagen, in words): not inhibited; ADP-induced aggregation ([9]; 5 μM agent, 0 min in PRP at 37° C., without agent 82%): 13%; ADP-induced aggregation ([9]; 5 μM agent, 60 min in PRP at 37° C., without agent 69%): 31%; ADP-induced aggregation ([9]; 5 μM agent, 120 min in PRP at 37° C., without agent 59%): 47%; ADP-induced aggregation ([9]; 5 μM agent, 180 min in PRP at 37° C., without agent 43%): 42%; Ki [10]: 1.1 µM
2 | Nc1ncnc2c1ncn2[C@@H]1O[C@H](COP(O)(=S)OP(=O)(O)C(Cl)P(=O)(O)OP(O)(=S)OC[C@H]2O[C@@H](n3cnc4c(N)ncnc43)[C@H](O)[C@@H]2O)[C@@H](O)[C@H]1O (stereo partly drawn) [Thio-CHCl-AP4 A, P^1, P^4 -dithio -P^2 -P^3 monochloromethylene 5', 5'" diadenosine P^1, P^4 -tetraphosphate] | 0.81 µM | 9.12 µM | 9 µM | 5.25 µM | detectable inhibitory effect | Neither thio-CHCl-AP4 A nor CHCl-AP4 A affected | Neither thio-CHCl-AP4 A nor CHCl-AP4 A affected | 9.9 % binding | 5.3 % binding | 0.7 µM | 1.7 µM | 1.6 µM | 9 µM | very stable for at least a 3 hour period | activity at 25 µM ([3]; Homo sapiens, Platelet, 0.5 h, centrifugation, 20 μM ADP, 22° C., 30 min, mean of two, read-out: Aggregability (% of control)): 67%; activity at 25 µM ([3]; Homo sapiens, Platelet, 0.5 h, gel-filtration, 10 μM ADP, 22° C., 30 min, mean of three, read-out: Aggregability (% of control)): 78%; inhibition in the ability to aggregate following exposure to ADP ([3]; preincubated 25 μM thio-CHCl-AP4 A): 22-33%; inhibition of fibrinogen bound on ADP-activated platelets ([5]; compared to CHCl-AP4 A, in words): inhibited preferentially; ADP-induced aggregation ([9]; 2.5 μM agent, 0 min in PRP at 37° C., without agent 82%): 21%; ADP-induced aggregation ([9]; 2.5 μM agent, 60 min in PRP at 37° C., without agent 69%): 7%; ADP-induced aggregation ([9]; 2.5 μM agent, 120 min in PRP at 37° C., without agent 59%): 5%; ADP-induced aggregation ([9]; 2.5 μM agent, 180 min in PRP at 37° C., without agent 43%): 6%
